{
  "source": "patent US20110039721A1",
  "about": "“METHOD FOR PREDICTION ABOUT CARCINOGENICITY OF SUBSTANCE IN RODENT” (Chemicals Evaluation and Research Institute, priority 2007, published 2011)",
  "key": {"[1]": {"details": "cited from earlier work"}, "[2]": {"test_system": "mRNA expressed from the genes (A) to (D) in rat liver", "assay": "Behavior of genes (mRNA expression level, oligo-DNA microarray) in rat liver after 28-day oral administration", "format": "in vivo", "method_in_brief": "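Groups of four male F344 SPF rats aged 5 weeks are gavaged once a day for 28 days with test chemical in solvent or with solvent alone at equal volume. Total RNA comes from liver taken on day 28. Fold change of 1.5 or 1/1.5 versus control, directionally consistent, defines significance.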"}, "[3]": {"test_system": "liver", "details": "cited from earlier work"}, "[4]": {"test_system": "rodent", "details": "cited from earlier work"}, "[5]": {"details": "gene group (A), Unigene No. Rn.167075"}, "[6]": {"details": "gene group (C), Unigene No. Rn.120914"}},
  "note": "Like-named read-outs stand apart in the source and are kept apart here.",
  "data": [
    {"smiles": "C=CCc1ccc(OC)c(OC)c1", "note": "[TS086, Methyleugenol]", "values": [
      {"measurement": "Mutagenicity by Ames test", "setting": "[1]; classification M+/M−", "value": "M−"},
      {"measurement": "Behavior of gene caused by administration of chemical substance", "setting": "[2]; Gene No. 154, Rn.185941, group (C)", "value": "−"},
      {"measurement": "Behavior of gene caused by administration of chemical substance", "setting": "[2]; Gene No. 533, Rn.106184, group (C)", "value": "+"},
      {"measurement": "Behavior of gene caused by administration of chemical substance", "setting": "[2]; Gene No. 725, Rn.108075, group (C)", "value": "−"},
      {"measurement": "Behavior of gene caused by administration of chemical substance", "setting": "[2]; Gene No. 813, Rn.201760, group (C)", "value": "−"},
      {"measurement": "Behavior of gene caused by administration of chemical substance", "setting": "[2]; Gene No. 893, Rn.164817, group (C)", "value": "−"},
      {"measurement": "Behavior of gene caused by administration of chemical substance", "setting": "[2]; Gene No. 1119, Rn.9757, group (C)", "value": "−"},
      {"measurement": "Behavior of gene caused by administration of chemical substance", "setting": "[2]; Gene No. 1131, Rn.144946, group (C)", "value": "−"},
      {"measurement": "Behavior of gene caused by administration of chemical substance", "setting": "[2]; Gene No. 1163, Rn.11766, group (C)", "value": "−"},
      {"measurement": "Behavior of gene caused by administration of chemical substance", "setting": "[2]; Gene No. 1334, Rn.120914, group (C)", "value": "−"},
      {"measurement": "Behavior of gene caused by administration of chemical substance", "setting": "[2]; Gene No. 1494, Rn.1430, group (B)", "value": "−"},
      {"measurement": "Behavior of gene caused by administration of chemical substance", "setting": "[2]; Gene No. 1562, Rn.14744, group (C)", "value": "−"},
      {"measurement": "Behavior of gene caused by administration of chemical substance", "setting": "[2]; Gene No. 1741, Rn.1647, group (C)", "value": "−"},
      {"measurement": "Behavior of gene caused by administration of chemical substance", "setting": "[2]; Gene No. 1993, Rn.18728, group (C)", "value": "−"},
      {"measurement": "Behavior of gene caused by administration of chemical substance", "setting": "[2]; Gene No. 2026, Rn.167075, group (A)", "value": "−"},
      {"measurement": "Behavior of gene caused by administration of chemical substance", "setting": "[2]; Gene No. 2045, Rn.19329, group (B)", "value": "−"},
      {"measurement": "Behavior of gene caused by administration of chemical substance", "setting": "[2]; Gene No. 2203, Rn.21240, group (B)", "value": "−"},
      {"measurement": "Behavior of gene caused by administration of chemical substance", "setting": "[2]; Gene No. 2494, Rn.23969, group (C)", "value": "−"},
      {"measurement": "Behavior of gene caused by administration of chemical substance", "setting": "[2]; Gene No. 2546, Rn.24561, group (C)", "value": "−"},
      {"measurement": "Behavior of gene caused by administration of chemical substance", "setting": "[2]; Gene No. 3776, Rn.43232, group (C)", "value": "−"},
      {"measurement": "Behavior of gene caused by administration of chemical substance", "setting": "[2]; Gene No. 3929, Rn.4620, group (C)", "value": "−"},
      {"measurement": "Behavior of gene caused by administration of chemical substance", "setting": "[2]; Gene No. 4095, Rn.119024, group (C)", "value": "−"},
      {"measurement": "Behavior of gene caused by administration of chemical substance", "setting": "[2]; Gene No. 4218, Rn.167075, group (A)", "value": "−"},
      {"measurement": "Behavior of gene caused by administration of chemical substance", "setting": "[2]; Gene No. 4846, Rn.144554, group (A)", "value": "+"},
      {"measurement": "Behavior of gene caused by administration of chemical substance", "setting": "[2]; Gene No. 4973, Rn.118529, group (C)", "value": "−"},
      {"measurement": "Behavior of gene caused by administration of chemical substance", "setting": "[2]; Gene No. 5600, Rn.9836, group (A)", "value": "+"},
      {"measurement": "Behavior of gene caused by administration of chemical substance", "setting": "[2]; Gene No. 5634, Rn.9862, group (C)", "value": "−"},
      {"measurement": "Behavior of gene caused by administration of chemical substance", "setting": "[2]; Gene No. 5726, Rn.9939, group (D)", "value": "−"},
      {"measurement": "Behavior of gene caused by administration of chemical substance", "setting": "[2]; Gene No. 5878, Rn.143213, group (C)", "value": "−"},
      {"measurement": "Behavior of gene caused by administration of chemical substance", "setting": "[2]; Gene No. 6026, Rn.167685, group (C)", "value": "−"},
      {"measurement": "Behavior of gene caused by administration of chemical substance", "setting": "[2]; Gene No. 6182, Rn.5834, group (A)", "value": "+"},
      {"measurement": "Behavior of gene caused by administration of chemical substance", "setting": "[2]; Gene No. 6303, Rn.123063, group (C)", "value": "−"},
      {"measurement": "Behavior of gene caused by administration of chemical substance", "setting": "[2]; Gene No. 6620, Rn.120914, group (C)", "value": "−"},
      {"measurement": "Behavior of gene caused by administration of chemical substance", "setting": "[2]; Gene No. 6742, Rn.9779, group (C)", "value": "−"},
      {"measurement": "Liver carcinogenicity", "setting": "[3]; classification Cr+/Cr−", "value": "Cr+"},
      {"measurement": "Carcinogenicity", "setting": "[4]; classification C+/C−", "value": "C+"}
    ]},
    {"smiles": "IC(I)I", "note": "[TS039, Iodoform]", "values": [
      {"measurement": "Mutagenicity by Ames test", "setting": "[1]; classification of the substance (M+/M−)", "value": "M+"},
      {"measurement": "Behavior of gene caused by administration of chemical substance, Gene No. 4846", "setting": "[2]; gene group (A), Unigene No. Rn.144554", "value": "−"},
      {"measurement": "Behavior of gene caused by administration of chemical substance, Gene No. 2026", "setting": "[2]; [5]", "value": "−"},
      {"measurement": "Behavior of gene caused by administration of chemical substance, Gene No. 4218", "setting": "[2]; [5]", "value": "−"},
      {"measurement": "Behavior of gene caused by administration of chemical substance, Gene No. 6182", "setting": "[2]; gene group (A), Unigene No. Rn.5834", "value": "−"},
      {"measurement": "Behavior of gene caused by administration of chemical substance, Gene No. 5600", "setting": "[2]; gene group (A), Unigene No. Rn.9836", "value": "−"},
      {"measurement": "Behavior of gene caused by administration of chemical substance, Gene No. 1494", "setting": "[2]; gene group (B), Unigene No. Rn.1430", "value": "+"},
      {"measurement": "Behavior of gene caused by administration of chemical substance, Gene No. 2045", "setting": "[2]; gene group (B), Unigene No. Rn.19329", "value": "−"},
      {"measurement": "Behavior of gene caused by administration of chemical substance, Gene No. 2203", "setting": "[2]; gene group (B), Unigene No. Rn.21240", "value": "−"},
      {"measurement": "Behavior of gene caused by administration of chemical substance, Gene No. 533", "setting": "[2]; gene group (C), Unigene No. Rn.106184", "value": "−"},
      {"measurement": "Behavior of gene caused by administration of chemical substance, Gene No. 725", "setting": "[2]; gene group (C), Unigene No. Rn.108075", "value": "−"},
      {"measurement": "Behavior of gene caused by administration of chemical substance, Gene No. 1163", "setting": "[2]; gene group (C), Unigene No. Rn.11766", "value": "−"},
      {"measurement": "Behavior of gene caused by administration of chemical substance, Gene No. 4973", "setting": "[2]; gene group (C), Unigene No. Rn.118529", "value": "−"},
      {"measurement": "Behavior of gene caused by administration of chemical substance, Gene No. 4095", "setting": "[2]; gene group (C), Unigene No. Rn.119024", "value": "−"},
      {"measurement": "Behavior of gene caused by administration of chemical substance, Gene No. 1334", "setting": "[2]; [6]", "value": "+"},
      {"measurement": "Behavior of gene caused by administration of chemical substance, Gene No. 6620", "setting": "[2]; [6]", "value": "+"},
      {"measurement": "Behavior of gene caused by administration of chemical substance, Gene No. 6303", "setting": "[2]; gene group (C), Unigene No. Rn.123063", "value": "+"},
      {"measurement": "Behavior of gene caused by administration of chemical substance, Gene No. 5878", "setting": "[2]; gene group (C), Unigene No. Rn.143213", "value": "−"},
      {"measurement": "Behavior of gene caused by administration of chemical substance, Gene No. 1131", "setting": "[2]; gene group (C), Unigene No. Rn.144946", "value": "−"},
      {"measurement": "Behavior of gene caused by administration of chemical substance, Gene No. 1562", "setting": "[2]; gene group (C), Unigene No. Rn.14744", "value": "−"},
      {"measurement": "Behavior of gene caused by administration of chemical substance, Gene No. 1741", "setting": "[2]; gene group (C), Unigene No. Rn.1647", "value": "+"},
      {"measurement": "Behavior of gene caused by administration of chemical substance, Gene No. 893", "setting": "[2]; gene group (C), Unigene No. Rn.164817", "value": "+"},
      {"measurement": "Behavior of gene caused by administration of chemical substance, Gene No. 6026", "setting": "[2]; gene group (C), Unigene No. Rn.167685", "value": "−"},
      {"measurement": "Behavior of gene caused by administration of chemical substance, Gene No. 154", "setting": "[2]; gene group (C), Unigene No. Rn.185941", "value": "+"},
      {"measurement": "Behavior of gene caused by administration of chemical substance, Gene No. 1993", "setting": "[2]; gene group (C), Unigene No. Rn.18728", "value": "−"},
      {"measurement": "Behavior of gene caused by administration of chemical substance, Gene No. 813", "setting": "[2]; gene group (C), Unigene No. Rn.201760", "value": "−"},
      {"measurement": "Behavior of gene caused by administration of chemical substance, Gene No. 2494", "setting": "[2]; gene group (C), Unigene No. Rn.23969", "value": "−"},
      {"measurement": "Behavior of gene caused by administration of chemical substance, Gene No. 2546", "setting": "[2]; gene group (C), Unigene No. Rn.24561", "value": "−"},
      {"measurement": "Behavior of gene caused by administration of chemical substance, Gene No. 3776", "setting": "[2]; gene group (C), Unigene No. Rn.43232", "value": "−"},
      {"measurement": "Behavior of gene caused by administration of chemical substance, Gene No. 3929", "setting": "[2]; gene group (C), Unigene No. Rn.4620", "value": "−"},
      {"measurement": "Behavior of gene caused by administration of chemical substance, Gene No. 1119", "setting": "[2]; gene group (C), Unigene No. Rn.9757", "value": "−"},
      {"measurement": "Behavior of gene caused by administration of chemical substance, Gene No. 6742", "setting": "[2]; gene group (C), Unigene No. Rn.9779", "value": "+"},
      {"measurement": "Behavior of gene caused by administration of chemical substance, Gene No. 5634", "setting": "[2]; gene group (C), Unigene No. Rn.9862", "value": "+"},
      {"measurement": "Behavior of gene caused by administration of chemical substance, Gene No. 5726", "setting": "[2]; gene group (D), Unigene No. Rn.9939", "value": "−"},
      {"measurement": "Liver carcinogenicity", "setting": "[3]; classification of the substance (Cr+/Cr−)", "value": "Cr−"},
      {"measurement": "Carcinogenicity", "setting": "[4]; classification of the substance (C+/C−)", "value": "C−"}
    ]}
  ]
}
